The record followed here is ChEMBL document CHEMBL2363022, “Malaria Box Schistosomiasis Screening Data” (2013).

Common to all, as to assay type: functional
Holding throughout (parameters): scale not given here

Test [1] deals with Schistosoma mansoni.
For test [2], the system named is Schistosoma mansoni. The source holds these as a separate data set.
Test [3] relates to Schistosoma mansoni. This is another data set of the same source.

As to `CCCCc1c(C)nc2c(OC)cccc2c1O`, the Toxicity in test [1], in test [2] and in test [3] was 0 throughout.
As for `c1ccc(-c2ccc(-c3nc4ccccc4[nH]3)cc2)cc1`, the Toxicity in test [1], in test [2] and in test [3] was 0 each time.
`CCN(CC)CCNc1ccnc2cc(Cl)ccc12`: the Toxicity in test [1], in test [2] and in test [3] was 0 throughout.
Take `Cc1cc(C)c2c(c1)OCN(Cc1ccccc1Cl)C2`: the results for the Toxicity in test [1], in test [2] and in test [3] were 0, 0 and 2, respectively.
Turning to `Cc1ccc(C(=O)c2oc3ccc4c(C)cc(=O)oc4c3c2C)cc1`, the Toxicity in test [1], in test [2] and in test [3] was 0 each time.
Consider `CCOC(=O)C1CCN(C(=O)CN2C(=O)c3ccccc3C2c2c[nH]c3ccccc23)CC1` (configuration not stated), for which the Toxicity in test [1], in test [2] and in test [3] was 0 throughout.
For `Nc1ccn([C@@H]2O[C@H](CO)[C@@H](O)[C@H]2O)c(=O)n1` [CYTIDINE], the Toxicity in test [1], in test [2] and in test [3] was 0 throughout.
Consider `O=C(Nc1ccc(CN2CCOCC2)cc1)c1ccc(-c2ccc(Br)cc2)o1`, for which the Toxicity in test [1], in test [2] and in test [3] was 0 in each case.
Take `CCCCc1c(CCC)c(=N)c2ccccc2n1C.I`: the Toxicity in test [1], in test [2] and in test [3] was 0 in each case.
Turning to `CC(C)(C)c1ccc2c(c1)CN(Cc1ccc(Cl)cc1)CO2`, the Toxicity in test [1], in test [2] and in test [3] was 0 each time.
`COc1ccc(C(=O)Nc2ccc3nc(N4CCCCC4)cc(C)c3c2)cc1OC`: the Toxicity in test [1], in test [2] and in test [3] was 0 each time.
`CCn1c(SCC(=O)Nc2cc(C(F)(F)F)ccc2Cl)nc2ccccc2c1=O`: the Toxicity in test [1], in test [2] and in test [3] was 0 each time.
For the compound `CC1CC(C)CN(C(=O)c2ccc(Cl)cc2Cl)C1` (configuration not stated), the Toxicity in test [1], in test [2] and in test [3] was 0 in each case.
Take `CCCN(CCC)CC(O)COc1ccccc1C(=O)Nc1ccccc1` (configuration not stated): the Toxicity in test [1], in test [2] and in test [3] was 0 each time.
`Cl.Oc1ccccc1CNCC12CC3CC(CC(C3)C1)C2`: the Toxicity in test [1], in test [2] and in test [3] was 0 in each case.
Consider `COc1ccc(-c2cc3c(SCC(=O)Nc4cc(C(F)(F)F)ccc4Cl)nccn3n2)cc1`, for which the Toxicity in test [1], in test [2] and in test [3] was 0 in each case.
For `CN(N=O)C1=C(NC2CCCCC2)C(=O)c2ccccc2C1=O`, the Toxicity in test [1], in test [2] and in test [3] was 0 throughout.
On to `O=C(Nc1ccc(Cl)cc1)N1CCN(c2ccc3nncn3n2)CC1`, for which the Toxicity in test [1], in test [2] and in test [3] was 0 in each case.
For `COc1ccc(C2c3ccc4ccccc4c3Oc3ncn(CCCN(C)C)c(=N)c32)cc1` (configuration not stated), the Toxicity in test [1], in test [2] and in test [3] was 4 each time.
Turning to `COc1ccc(NC(=O)C2c3ccccc3C(=O)N(CC(C)C)C2c2cccs2)cc1` (configuration not stated), the Toxicity in test [1] worked out at 1; in test [2], 0; in test [3], 0.
Consider `CCN1CCCC1CNc1[nH]cnc2c3cc(Cl)ccc3nc1-2` (configuration not stated), for which the Toxicity in test [1], in test [2] and in test [3] was 0 throughout.
Turning to `CC1CN(C(=O)c2sc3ccccc3c2Cl)CC(C)O1` (configuration not stated), the Toxicity in test [1], in test [2] and in test [3] was 0 throughout.
In the case of `CC(C)(C)C(=O)Nc1ccc(C(=O)Nc2cccc(-c3nc4ccccc4[nH]3)c2)cc1`, the Toxicity is on record as 0 in test [1], 0 in test [2] and 2 in test [3].
Take `COc1ccc(-c2cc(=O)oc3c4c(ccc23)OCN(Cc2ccc(F)cc2)C4)cc1`: the Toxicity in test [1], in test [2] and in test [3] was 0 in each case.
As to `O=C(CSc1ccc2nnc(-c3cccc(F)c3)n2n1)Nc1ccc2c(c1)OCO2`, the Toxicity in test [1], in test [2] and in test [3] was 0 each time.
Regarding `COc1cccc(NC(=O)[C@H](C(C)C)n2c(=O)[nH]c3ccccc3c2=O)c1`, the Toxicity in test [1], in test [2] and in test [3] was 0 each time.
On to `COc1cc(C(=O)Nc2ccc(-c3nc4ccccc4[nH]3)cc2)cc(OC)c1OC`, for which the Toxicity in test [1], in test [2] and in test [3] was 0 each time.
As for `CC(C)(C)c1ccc(O)c(CNC2CCCCC2)c1`, the Toxicity in test [1], in test [2] and in test [3] was 0 in each case.
In the case of `O=C(NCC1Cc2cccc(-c3ccncc3)c2O1)c1csc2c1CCCC2` (configuration not stated), the Toxicity in test [1], in test [2] and in test [3] was 0 in each case.
`Cc1cc(Nc2cccc(F)c2)nc(NCc2ccccc2)n1`: the Toxicity is listed as 2 in test [1], 0 in test [2] and 0 in test [3].
As for `COc1ccc(C(=O)Nc2nonc2-c2ccc(OC)c(OC)c2)cc1Cl`, the Toxicity in test [1], in test [2] and in test [3] was 0 in each case.
For the compound `Cc1ccc(Nc2nc(NCCO)c3ccccc3n2)cc1C`, the values for the Toxicity in test [1], in test [2] and in test [3] were 1, 0 and 1, respectively.
In the case of `c1ccc(CNc2nc(Nc3ccccc3)nc3ccccc23)cc1`, the Toxicity in test [1], in test [2] and in test [3] was 2 in each case.
For `COC(=O)c1ccc(Cl)c2c1C1C=CCC1C(c1cccc3ccccc13)N2` (configuration not stated), the Toxicity in test [1], in test [2] and in test [3] was 0 each time.
Consider `COc1cccc(-c2nn(C)c3sc(C(=O)NCCN4CCN(c5ccccc5F)CC4)cc23)c1`, for which the Toxicity is 0 in test [1], 0 in test [2] and 3 in test [3].
Consider `CCOC(=O)C1=CN(C)C=C(C(=O)OCC)C1c1cc(Br)c(OCC)c(OC)c1`, for which the Toxicity in test [1], in test [2] and in test [3] was 0 throughout.
For `O=C(CCc1ccco1)NC1CCN(CC2(c3ccc(Cl)cc3)CCC2)CC1`, the Toxicity in test [1], in test [2] and in test [3] was 0 throughout.
Take `COc1ccc(C=C2SC(Nc3ccc(F)cc3)=NC2=O)c(OC)c1`: the Toxicity in test [1], in test [2] and in test [3] was 0 in each case.
With `Cc1cc(NC(=O)c2cccc(C(F)(F)F)c2)n(-c2nc(-c3ccc4c(c3)OCO4)cs2)n1`, the Toxicity in test [1] turned out to be 0; in test [2], 0; in test [3], 3.
In the case of `CN1CCN(c2ccc(Nc3c4ccccc4nc4ccccc34)cc2)CC1`, the values for the Toxicity in test [1], in test [2] and in test [3] were 2, 4 and 4, respectively.
`O=C(Cc1ccccc1)NC(c1ccc(Cl)cc1)c1c(O)ccc2ccccc12` (configuration not stated): the Toxicity in test [1] was 2; in test [2], 1; in test [3], 2.
In the case of `CCOC(=O)c1c(C)n(-c2ccc(Cl)cc2)c2ccc(OC(=O)C=Cc3ccccc3)cc12`, the Toxicity in test [1], in test [2] and in test [3] was 0 in each case.
Take `O=C(c1ccccc1F)N(Cc1ccc(Cl)cc1)c1ccccn1`: the Toxicity in test [1], in test [2] and in test [3] was 0 in each case.
As to `CCCN(CCC)CCCNC(=O)c1cc2c(-c3ccc(OC)c(OC)c3)nn(C)c2s1`, the Toxicity came to 0 in test [1], 0 in test [2] and 3 in test [3].
For `CC1=C(CC(=O)c2cccc([N+](=O)[O-])c2)C(=O)c2ccccc2C1=O`, the Toxicity in test [1] was found to be 0; in test [2], 2; in test [3], 2.
`CC(=O)c1ccc(NC(=O)CSc2nc(-c3ccccc3Cl)ns2)cc1`: the Toxicity in test [1], in test [2] and in test [3] was 0 throughout.
As to `COc1ccc(C(O)(CCC(C)C)C(CN2CCOCC2)c2ccc(Cl)cc2)cc1.Cl` (configuration not stated), the Toxicity in test [1], in test [2] and in test [3] was 0 in each case.
With `COc1ccc(OC)c(C2C3=C(CC(C)(C)CC3=O)N(c3ccc(Cl)c(Cl)c3)C3=C2C(=O)CC(C)(C)C3)c1`, the Toxicity is 1 in test [1], 0 in test [2] and 1 in test [3].
On to `CCCCN(CCCC)S(=O)(=O)c1ccc(NC(=O)c2ccco2)cc1`, for which the Toxicity in test [1], in test [2] and in test [3] was 0 in each case.
`O=[N+]([O-])c1ccc(C=NNc2nc3ccccc3[nH]2)cc1`: the Toxicity is 0 in test [1], 1 in test [2] and 0 in test [3].
Consider `CCc1ccc(Nc2cc(C)nc3nc(C)nn23)cc1`, for which the Toxicity in test [1], in test [2] and in test [3] was 0 each time.
Turning to `COc1ccccc1CNC(=O)CCn1c(=O)[nH]c2ccccc2c1=O`, the Toxicity in test [1], in test [2] and in test [3] was 0 throughout.
As for `CCC(=O)Nc1nnc(Cc2ccc(OC)c(OC)c2)s1`, the Toxicity in test [1], in test [2] and in test [3] was 0 in each case.
As for `C=CCc1c(C)nc2ccccc2c1O`, the Toxicity in test [1], in test [2] and in test [3] was 0 each time.
